# Columns and labels:
# HepG2 CYP2C19 [1] = experiment: Radiotracer metabolic stability, CYP2C19-overexpressing HepG2 cells; assay type: in vitro ADME, human; conditions: radio-TLC
# Description: (§1) CYP-overexpressing human hepatocellular carcinoma cells (HepG2) were previously generated on the basis of subcloning human CYP1A2 [18], CYP2C19 [20], and CYP3A4 [21] cDNA into a lentiviral expression vector. The cDNA expression in the resulting vector was controlled by the human cytomegalovirus (CMV) promoter. The lentivirus expression vectors were used to produce recombinant lentivirus particles according to standard methods to infect HepG2 cells. Infected cells were selected with 3 µg/mL blasticidin for CYP2C19 and CYP3A4 and 500 µg/mL zeocin for CYP1A2 overexpression 48 h after infection. Within 3–4 weeks, antibiotic-resistant cell colonies were picked to obtain single cell-derived HepG2 clones. For more detailed information on the generation procedure of CYP-overexpressing HepG2 cells, see Steinbrecht et al..
# HepG2 cells were cultured in DMEM GlutaMax (Gibco, Paisley, UK) with 10% fetal calf serum (FCS) and with selective antibiotics (penicillin/streptomycin for wildtype, Zeocin (InvivoGen, San Diego, CA, USA) for CYP1A2, and Blasticidin (Gibco, Carlsbad, CA, USA) for CYP2C19 and CYP3A4 cultures). As a negative control, cultures of CHO cultivated in Ham’s F-12 medium (Gibco) with 10% FCS and 2 mM glutamine were added for the radiotracer experiments. Cells were handled under a laminar flow hood (Thermo Scientific^TM Safe 2020, Langenselbold, Germany) and were split once or twice a week by trypsinization. Cell cultures were stored horizontally in a humidified incubator (Heracell240i) at 37 °C and 5% CO2. During the time of experimental work, the utilized cell lines were regularly checked for mycoplasma. Cells were seeded in duplicates into a 96-well plate (CellStar®) with a density of 3 × 10^5 cells/well and cultured until the next day at 37 °C and 5% CO2. Cell density was determined with a cell counter (CASY® Model TT from Schärfe System, Reutlingen, Germany). Before the addition of substrates, cells were washed twice with Krebs–Henseleit buffer (KHB). The HEPES-supplemented Krebs–Henseleit buffer (pH 7.4, KHB) was freshly prepared using HEPES (5.95 g/L), D-glucose (2.0 g/L), magnesium sulfate (0.141 g/L), potassium dihydrogenphosphate (0.16 g/L), potassium chloride (0.35 g/L), sodium chloride (6.9 g/L), calcium chloride dihydrate (0.373 g/L), and sodium bicarbonate (2.1 g/L), followed by adjustment to pH 7.4 with NaOH. The utilized substances within this study were neither found (see Supplementary Materials, Figure S14) nor reported to be cytotoxic within the utilized concentration range and incubation duration.
# Incubations with radiotracer compounds were conducted, on the one hand, with radioactive ^18F-labeled compounds alone (time dependency) and, on the other hand, in the presence of 50 µM nonradioactive reference (carrier addition). For the investigation of a time-dependent metabolite formation, 2 µL aliquots were withdrawn from the supernatant, directly spotted onto the TLC plate, and analyzed as described above. The same procedure was performed for carrier-added samples.
# UPLC–MS analyses were performed to verify the degradation behavior of the test compounds and to gain insights into the identity of the formed metabolites. Using radiotracer incubation samples, 40 µL aliquots of the carrier-added incubations were withdrawn followed by addition of 160 µL of ACN and centrifugation (14,000 rpm (18,800–20,800× g), 4 °C, 5 min). Samples were frozen at −20 °C, and activity was allowed to decay before further mass-spectrometric analyses. Additionally, incubations with the nonradioactive references were carried out with 100 nM or 50 µM (according to the carrier-added samples) and analyzed. UPLC–MS/MS was performed using System 2 (55% isocratic elution for quantification of intact compound, or 25–75% gradient for nonradioactive metabolite analysis). The MRM mode was optimized with a solution of respective reference compounds diluted in eluent. […]
# HepG2 CYP3A4 = experiment: Radiotracer metabolic stability, CYP3A4-overexpressing HepG2 cells; assay type: in vitro ADME, human; conditions: HepG2 CYP3A4, up to 2 h; radio-TLC
# Description: as §1
# HepG2 cells were cultured in DMEM GlutaMax (Gibco, Paisley, UK) with 10% fetal calf serum (FCS) and with selective antibiotics (penicillin/streptomycin for wildtype, Zeocin (InvivoGen, San Diego, CA, USA) for CYP1A2, and Blasticidin (Gibco, Carlsbad, CA, USA) for CYP2C19 and CYP3A4 cultures). As a negative control, cultures of CHO cultivated in Ham’s F-12 medium (Gibco) with 10% FCS and 2 mM glutamine were added for the radiotracer experiments. […] Cell density was determined with a cell counter (CASY® Model TT from Schärfe System, Reutlingen, Germany). […]
# [2] = test system: human liver microsomes (HLMs); experiment: Microsome assay, human liver microsomes; assay type: in vitro ADME; conditions: for Amount of intact tracer: radio-TLC
# Description: (§2) The stability of [^18F]1 toward liver microsomes was analyzed under oxidative conditions with MLMs (MSMCP, Lot: MS046-C) and HLMs (HMMCPL; Lot: PL050E-B) according to a previously described procedure. In brief, 12.5 µL of the respective microsomes (final 1 mg/mL) were mixed with 110.4 µL of PBS, followed by the addition of 100 µL of [^18F]1 (with 5 MBq and 1% ethanol; final 0.4% ethanol) and 2.1 µL of reference compound (final concentration 50 µM 1), or an equivalent of DMSO. The resulting mixture was mixed at 37 °C for 5 min, and the reaction was then initiated by the addition of 25 µL of NADPH (final 2 mM). After 1 h incubation, the resulting samples were mixed with ice-cold ACN (1/4, v/v) and vortexed for 30 s, placed on ice for 4 min, and finally centrifuged at 13,200 rpm for 5 min at 4 °C. The supernatant was separated and used for further analysis by radio-HPLC (6–10 µL injection volume; System 1b with 25–75% gradient elution) and radio-TLC analysis (2 µL applied on TLC, analysis as described above).
# [3] = test system: murine liver microsomes (MLMs); experiment: Microsome assay, murine liver microsomes; assay type: in vitro ADME; conditions: 1 h incubation
# Description: as §2
# HepG2 CYP1A2 = experiment: Competitive coincubation of [18F]1 with competitors, HepG2 CYP1A2; conditions: 1 h; without any additional substance; 120–125 nM [18F]1
# Description: (§3) Radio thin-layer chromatography (radio-TLC) was carried out on reversed-phase TLC plates (ALUGRAM RP-18W/UV254 from Macherey-Nagel, Düren, Germany) with a mobile phase of 45% ACN in water containing 0.1% trifluoroacetic acid. The samples (2 µL) were spotted onto the TLC plate. The line of origin and the front line were labeled with 1/5 of the sample activity concentration. To track the Rf value of the intact radiotracer, each TLC was spotted with the intact tracer as reference in the middle. Detection of the activity signals was achieved after 10–30 min development on radioluminographic imaging plates (FUJIFILM, Tokyo, Japan) and subsequent readout with Fuji BAS 5000® or Amersham™ Typhoon™ from GE Healthcare (Uppsala, Sweden). The resulting chromatographic profile was analyzed and integrated with the help of AIDA Image Analysis Software (version 5.1). For data depiction, the fraction of each species (intact radiotracer, metabolite, [^18F]fluoride) was plotted.
# (§4) Incubations were conducted for up to 2 h in a 96-well plate in KHB with a total incubation volume of 50 µL and an ethanol concentration of 0.4%. For the incubation with radiotracers, an activity of 100–200 kBq/well at the start of the experiment was used.
# (§5) Our last interest within this study was to test if the tracer itself could function as an indicator for the conversion of other substrates acting via inhibition of or competition with the CYP enzymes. In this regard, alternative substrates were added to the incubation mixtures with [^18F]1. The investigated substrates covered testosterone, caffeine, progesterone, compound 3, tebufelone, and RWJ63556 [44] (10 µM for all substances). Furthermore, the influence of testosterone on the metabolic turnover of [^18F]1 was investigated over a concentration range of 1–50 µM.
# Figure 7 Coincubation of [^18F]1 and different competitors with (A) HepG2 CYP1A2 and (B) HepG2 CYP2C19. […] Each competitor/inhibitor was incubated with [^18F]1 for 1 h followed by radio-TLC analysis. Activity concentrations of 94–197 kBq/well (1.9–3.9 MBq/mL) were used at start of experiment, which correspond to a concentration of 120–125 nM. Statistical analysis performed with Dunnett’s multiple comparison (post hoc test) according to the intact tracer amount (* p < 0.05; *** p < 0.001; **** p < 0.0001; n = 4).
# HepG2 CYP2C19 [4] = experiment: Competitive coincubation of [18F]1 with competitors, HepG2 CYP2C19; conditions: 1 h; without additional substances; 120–125 nM [18F]1
# Description: as §3, §4, §5
# Figure 7 Coincubation of [^18F]1 and different competitors with (A) HepG2 CYP1A2 and (B) HepG2 CYP2C19. […] Each competitor/inhibitor was incubated with [^18F]1 for 1 h followed by radio-TLC analysis. […]
smiles,measurement,setting,value
"Cc1ccc(-c2cc(C[18F])nn2-c2ccc(S(C)(=O)=O)cc2)cc1 [[^18F]1, 3-([^18F]fluoromethyl)-1-[4-(methylsulfonyl)phenyl]-5-(p-tolyl)-1H-pyrazole]",Amount of intact tracer,"HepG2 CYP2C19 [1]; 1 h, without carrier addition, 24 MBq/mL (460 nM)",6.6%
same,Intact tracer in supernatant,"HepG2 CYP2C19 [1]; 1 h incubation, 2–4 MBq/mL (28–187 nM)",1.3%
same,Metabolic turnover / stability of radiotracer (in words),"HepG2 CYP2C19 [1]; HepG2 CYP2C19, up to 2 h",formation of radiometabolites was observed
same,Metabolic turnover / stability of radiotracer (in words),HepG2 CYP3A4,mainly intact radiotracer was found
same,Increase of intact tracer amount with carrier addition,"[2]; 1 h, CA versus without carrier addition",sevenfold
same,Amount of intact tracer,"[2]; 1 h, carrier-added (CA), 50 µM 1",30.3%
same,Amount of intact tracer,"[2]; 1 h, without carrier addition, 38 MBq/mL (931 nM), 1 mg/mL microsomes, NADPH",4.2%
same,Formation of second metabolite (M2),[2]; 1 h incubation,observed
same,Formation of second metabolite (M2),[3],did not lead to the second metabolite
same,Intact tracer [18F]1 remaining,HepG2 CYP1A2,33%
same,Intact tracer [18F]1 remaining,HepG2 CYP2C19 [4],11%

# Source: paper PMC9368227, “Investigation of Radiotracer Metabolic Stability In Vitro with CYP-Overexpressing Hepatoma Cell Lines” (Cells, 2022)
